Residue numbers refer to the chain shown, from its start.
Columns and labels:
Format in all cases: cell-based
[1] = target: T1, human 5-HT3A receptor F199A mutant (Homo sapiens, UniProt P46098, F221A); assay: Two-electrode voltage clamp, I5-HT inhibition, F199A mutant; conditions: −80 mV
T1 sequence (P46098 24-478 F221A): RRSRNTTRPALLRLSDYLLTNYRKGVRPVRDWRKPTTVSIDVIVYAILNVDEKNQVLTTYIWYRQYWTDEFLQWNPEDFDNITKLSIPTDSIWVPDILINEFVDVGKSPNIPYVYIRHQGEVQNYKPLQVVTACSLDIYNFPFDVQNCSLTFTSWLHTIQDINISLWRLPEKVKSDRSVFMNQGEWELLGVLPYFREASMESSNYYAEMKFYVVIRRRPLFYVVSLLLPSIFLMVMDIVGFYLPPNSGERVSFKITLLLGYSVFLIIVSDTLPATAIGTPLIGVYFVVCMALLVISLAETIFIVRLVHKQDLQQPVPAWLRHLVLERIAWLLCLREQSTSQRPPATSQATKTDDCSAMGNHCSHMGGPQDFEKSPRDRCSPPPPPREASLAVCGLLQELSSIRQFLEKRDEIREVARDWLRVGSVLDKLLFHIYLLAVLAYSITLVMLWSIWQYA
Description: Xenopus oocytes were used in this study as cells for expression of human 5-HT3A receptor. All female frogs used in this experiment were obtained from the Korean Xenopus Resource Center for Research (KXRCR000001). […] Isolated oocytes were incubated with ND96 incubation buffer (96 mM NaCl, 2 mM KCl, 1 mM MgCl2, 1.8 mM CaCl2, 5 mM HEPES, 2.5 mM sodium pyruvate, and 50 mg/mL gentamycin, pH 7.4) at 18 °C until the experiment was performed. Human 5-HT3A receptor mRNA was injected into oocytes using a nanoinjector (Drummond Scientific, Broomall, PA, USA) with a mineral-filled 10 μL microdispenser (VWR, Piscataway, NJ, USA).
The voltage relationship experiment for confirming the relationship between induce-inward current and voltage, the voltage was varied from −80 mV to +60 mV using a ramp protocol. Each microelectrode was filled with 3 M KCl having a resistance of 0.2 MΩ. […] The rate of application of the reagent was 2 mL per minute. All recording data were analyzed using Clampfit 9.0 (Molecular Devices, San Jose, CA, USA).
Point mutation was performed using Pfu DNA polymerase (Quikchange II Site-Directed Mutagenesis Kit). Chimeric primer design for PCR was performed under appropriate primer design guidelines. […]
(§1) All presented experiments were performed at least three times for scientific verification. […] Induced-inward current data were analyzed with SigmaPlot 10.0 software (Systat Software, Inc., San Jose, CA, USA). […]

[2] = target: T2, human 5-HT3A receptor T154A mutant (Homo sapiens, UniProt P46098, T176A); assay: Two-electrode voltage clamp, I5-HT inhibition, T154A mutant; conditions: −80 mV
T2 sequence (P46098 24-478 T176A): T1 sequence (P46098 24-478 F221A) with T153A, A198F
Description: Xenopus oocytes were used in this study as cells for expression of human 5-HT3A receptor. All female frogs used in this experiment were obtained from the Korean Xenopus Resource Center for Research (KXRCR000001). […] Xenopus oocytes were extracted during ice incubation state and isolated as single oocytes using collagenase II (2 mg/mL) in OR2 buffer (82.5 mM NaCl, 2 mM KCl, 1 mM MgCl2, 5 mM HEPES, pH 7.4). Isolated oocytes were incubated with ND96 incubation buffer (96 mM NaCl, 2 mM KCl, 1 mM MgCl2, 1.8 mM CaCl2, 5 mM HEPES, 2.5 mM sodium pyruvate, and 50 mg/mL gentamycin, pH 7.4) at 18 °C until the experiment was performed. Human 5-HT3A receptor mRNA was injected into oocytes using a nanoinjector (Drummond Scientific, Broomall, PA, USA) with a mineral-filled 10 μL microdispenser (VWR, Piscataway, NJ, USA).
To confirm the KAE activity on the human 5-HT3A receptor, a two-electrode voltage clamp (OC-725C; Warner Instruments, Hamden, CT, USA) with a Digitata 1550A was used. For the experiment, induced-inward current was converted to digital data with pClamp 10 software (Axon Instruments, Union City, CA, USA). All experiments were performed at room temperature using an oocyte clamp equipped with Digidata. The membrane holding potential was −80 mV.
The voltage relationship experiment for confirming the relationship between induce-inward current and voltage, the voltage was varied from −80 mV to +60 mV using a ramp protocol. […] All recording data were analyzed using Clampfit 9.0 (Molecular Devices, San Jose, CA, USA). […]
as §1

[3] = target: T3, human 5-HT3A receptor N101A mutant (Homo sapiens, UniProt P46098, N123A); assay: Two-electrode voltage clamp, I5-HT inhibition, N101A mutant
T3 construct: expressed in transfected cells; host or cells: Xenopus oocytes injected with mutant mRNA
T3 sequence (P46098 24-478 N123A): T1 sequence (P46098 24-478 F221A) with N100A, A198F
Description: Human 5-HT3A receptor cDNA was linearized using restriction enzyme XhoI. In vitro transcription was performed using an mMESSAGE mMACHINE T7 Transcription Kit (Thermo Fisher Scientific, Waltham, MA, USA). The final mRNA product was dissolved in 1X Diethyl Pyrocarbonate (RNase-free water) at a final concentration of 1 μg/μL and kept in a deep-freezer at −80 °C until used.
Xenopus oocytes were used in this study as cells for expression of human 5-HT3A receptor. All female frogs used in this experiment were obtained from the Korean Xenopus Resource Center for Research (KXRCR000001). […] Isolated oocytes were incubated with ND96 incubation buffer (96 mM NaCl, 2 mM KCl, 1 mM MgCl2, 1.8 mM CaCl2, 5 mM HEPES, 2.5 mM sodium pyruvate, and […], pH 7.4) at 18 °C until the experiment was performed. Human 5-HT3A receptor mRNA was injected into oocytes using a nanoinjector (Drummond Scientific, Broomall, PA, USA) with a mineral-filled 10 μL microdispenser (VWR, Piscataway, NJ, USA).
For the experiment, induced-inward current was converted to digital data with pClamp 10 software (Axon Instruments, Union City, CA, USA). All experiments were performed at room temperature using an oocyte clamp equipped with Digidata. The membrane holding potential was −80 mV.
The voltage relationship experiment for confirming the relationship between induce-inward current and voltage, the voltage was varied from −80 mV to +60 mV using a ramp protocol. Each microelectrode was filled with 3 M KCl having a resistance of 0.2 MΩ. Serotonin and KAE applied in the experiment were diluted in ND96 bath solution (96 mM NaCl, 2 mM KCl, 1 mM MgCl2, 1.8 mM CaCl2, and 5 mM HEPES, pH 7.5) to specified concentration. The rate of application of the reagent was 2 mL per minute. All recording data were analyzed using Clampfit 9.0 (Molecular Devices, San Jose, CA, USA). […]
All presented experiments were performed at least three times for scientific verification. […] Induced-inward current data were analyzed with SigmaPlot 10.0 software (Systat Software, Inc., San Jose, CA, USA).

SMILES: O=c1c(O)c(-c2ccc(O)cc2)oc2cc(O)cc(O)c12 [KAE, kaempferol]
- n (Hill coefficient) [1]: 1.4 ± 0.4
- IC50 ([1]; Table 1): 21.5 ± 5.7 µM
- Vmax ([1]; Table 1): 53.3 ± 10.4%
- IC50 [2]: 33.4 ± 7.9 µM
- Vmax [2]: 73.5 ± 9.4%
- n (Hill coefficient) [2]: 1.1 ± 0.4
- IC50 [3]: 56.4 ± 9.7 µM
- Vmax ([3]; N101A, −80 mV): 83.7 ± 8.6%
- n (Hill coefficient) ([3]; N101A, −80 mV): 1.1 ± 0.6

From PMC8745345, “Hydroxy Pentacyclic Triterpene Acid, Kaempferol, Inhibits the Human 5-Hydroxytryptamine Type 3A Receptor Activity” (International Journal of Molecular Sciences, 2022)
